In a melting point compilation (Tetko et al.; mined from patent text by program, amines drawn as free bases though some values may be those of a salt):

| SMILES | melting point [°C] |
| --- | --- |
| CC1(C)CC(=O)Nc2ccc(N)cc21 | 126 to 130 |
| Cc1cc(CCCCCOc2c(Cl)cc(-c3nc(C)c(C)s3)cc2Cl)on1 | 57 to 58 |
| O=C(O)C(=O)N1CCC(=Cc2ccccc2)CC1 | 125 |
| COCCOCc1nc2c(N)nc3ccccc3c2n1CCOc1ccccc1 | 170 to 172 |
| COC(=O)c1nn(-c2c(Cl)cc(C(F)(F)F)cc2Cl)c(OC)c1SC(F)(F)F | 97 to 98 |
| Cc1cccc(-c2nc(C(C)C)[nH]c2-c2ccc(F)c(-c3ccc(CC4CNCCO4)cc3)c2)n1 (stereo not drawn) | 147 to 161 |
| CC1(C)COP(=O)(Cc2ccc([N+](=O)[O-])cc2)OC1 | 176 to 177 |
| CCC(CC)C(=O)O[C@H]1C[C@H](O)C=C2C=C[C@H](C)[C@H](CC[C@@H]3C[C@@H](O)CC(=O)O3)[C@H]21 | 158 |
| Cc1c(-c2ccc(Cl)c(Cl)c2)n(-c2ccccc2)c(-c2ccccc2)cc1=O | 188 to 191 |
| CC(C)C12OC1C1OC13C1(C)CCC4=C(COC4=O)C1CC1OC13C2O (stereo not drawn) | 226 to 228 |
| OC1(c2ccc(Cl)c(Cl)c2)c2ccccc2C2=NCCN21 (stereo not drawn) | 203 to 205 |
| CNS(=O)(=O)c1cnc2ccc(OC)cc2c1O | 293 to 294 |
| CC1(C)OCCN1C(=O)C(Cl)Cl | 113 to 115 |
| COc1cc2ccc(-c3cc(C(=O)O)cs3)cc2cc1C12CC3CC(CC(C3)C1)C2 | 314 to 316 |
| CCc1nc2c(N)nc3cc(OCc4ccccc4)ccc3c2n1CCCCNS(C)(=O)=O | 214 to 215 |
| CC(=O)c1ccc(N)c(C#N)c1Cl | 189 to 193 |
| CCc1c(C)[nH]c2c1C(=S)C1CNCCC1C2 (stereo not drawn) | 190 to 194 |
| c1ccc2c(c1)nc(NCCN1CCNCC1)c1c3ccccc3[nH]c21 | 210 to 211 |
| O=C1C(=O)c2ccccc2C2=C1SCC(COc1cccnc1)O2 (stereo not drawn) | 153 to 155 |
| CS(=O)(=O)c1ccc(-c2cc(CO)cn2-c2ccc(F)cc2)cc1 | 88 to 90 |
| CC1(C)[C@@H](CNc2ncccc2C#N)CC[C@@]1(C)NCC(=O)N1C[C@@H](F)C[C@H]1C#N | 96 to 99 |

| SMILES | melting point [°C] |
| --- | --- |
| N#Cc1c(N2CCCCC2)cc(-c2cccs2)c2c1Cc1ccccc1-2 | 148 to 150 |
| CCCNC(=O)C1(CCCN2CCC(N3Cc4ccccc4C3=O)CC2)c2ccccc2-c2ccccc21 | 136 to 138 |
| CNC(=O)N1CCc2[nH]cnc2C1 | 213 |
| Cc1cccc(Cl)c1CNC(=O)C(C)Br (stereo not drawn) | 168 to 169 |
| N#CCCCOc1ccc(/C=C/C(=O)O)c(Oc2ncc(C(F)(F)F)cc2Cl)c1 | 183 to 185 |
| O=C(O)c1ccccc1-c1cc(-c2cccc(C(F)(F)F)c2)no1 | 175 to 176 |
| COC(=O)N[C@H](C(=O)N[C@@H](Cc1ccccc1)[C@@H](O)CN(Cc1ccc(-c2cncs2)cc1)NC(=O)OC(C)(C)C)C(C)C | 114 to 115 |
| O=C(O)Cc1ccc(CCOc2ccc(CC3SC(=O)NC3=O)cc2)nc1 (stereo not drawn) | 144 to 145 |
| CC(C)ON=Cc1cc(-n2c(=O)cc(C(F)(F)F)n(C)c2=O)ccc1Cl | 105 to 107 |
| CCCCN(CCCC)S(=O)(=O)c1cc(O)c(N=Nc2c(C)nn(-c3ccccc3)c2O)c2ccccc12 | 173 to 174 |
| C=CCOc1ccc2nc(OCC=C(C)C)ccc2c1 | 53 to 54 |
| CCOC(=O)C1=C[C@H](NC(=O)OC(C)(C)C)[C@@H](NC(C)=O)[C@@H]2OC(C)(C)O[C@H]12 | 174 to 175 |
| CCc1ccc(/C(Cl)=C/c2ccc(Br)cc2)cc1 | 75 |
| Cc1ccc(C(=O)NC(NC(=O)Nc2cccnc2)C(Cl)(Cl)Cl)cc1 (stereo not drawn) | 162 to 163 |
| CN1CCN(c2cccc3ccc(N)cc23)CC1 | 157 to 159 |
| CCOCCNc1nc(S)nc(N[C@@H](C)c2ccccc2)n1 | 53 |
| COc1ccc(C2(c3cccc(CCc4ccccc4)n3)OCCCO2)cc1OC | 86 to 87 |
| CSc1nc(C)ccc1NC(=O)CCCCCCCCSc1nc2ccccc2o1 | 99 to 100 |
| COC(=O)c1ccc2oc(CCl)c(C)c2c1 | 114 to 115 |
| COc1ccc(CCc2nnc(-c3ccc4nccn4c3)o2)cc1C(F)(F)F | 150 to 151 |
| N#Cc1cc(N)c(Cl)c(N)c1 | 172 |

The next lines start with the values.

| melting point [°C] | SMILES |
| --- | --- |
| 80 | COc1ccc([C@@]2(C)CNC(=O)O2)cc1OC1CCCC1 |
| 172 to 174 | CC(C)(C)CNCc1nc(-c2ccc3c(c2)Nc2ccccc2S3)cs1 |
| 131 to 132 | CC(C)N1CCN(c2ccc(OCC(O)CC(O)(Cn3cncn3)c3ccc(Cl)cc3Cl)cc2)CC1 (stereo not drawn) |
| 112 to 116 | CC(C)C(N=C(NN)NN)C(=O)O (stereo not drawn) |
| 91 to 93 | CCCCCCCCCCCCCCCCNC(=O)c1cc(OCCBr)c2ccccc2c1O |
| 177 to 180 | Cc1ccc(S(=O)(=O)N(CCN(CC(=O)O)S(=O)(=O)c2ccc(C)cc2)CCN(CC(=O)O)S(=O)(=O)c2ccc(C)cc2)cc1 |
| 148 to 150 | CCC(C)(CC)N=C(NC#N)Nc1cc(Cl)cc(Cl)c1 |
| 214 to 216 | Nc1c2c(nc3ccccc13)CCSC2 |
| 226 to 228 | NC(=O)c1c(-c2cccc(F)c2)c(Cl)n2c1CNCC2 |
| 116 to 117 | Nc1cccn2nc(SCc3ccccc3)nc12 |
| 222 to 224 | Cc1c(N2CCN(C(C)C)CC2)nn2c(-c3ccnnc3)c(-c3ccc(F)cc3)nc2c1C |
| 108 to 110 | COc1cc(CCNC=O)cc2c1OCO2 |
| 158 to 159 | NS(=O)(=O)c1ccc(-c2oc(Cl)nc2-c2ccccc2)cc1 |
| 206 | Cc1cc(C)cc(N(CCCC(N)=O)Cc2ccc3nc(NCCCN4CCOCC4)n(Cc4cccc5c4ncn5C)c3c2)c1 |
| 87 to 89 | COc1ccnc(CO)c1OC |
| 95 to 98 | CC(=O)OCCc1cccc2c(-c3ccccc3)c([N+](=O)[O-])oc12 |

| melting point [°C] | SMILES |
| --- | --- |
| 189 to 190 | CCCCS(=O)(=O)Nc1ccc(Oc2cc(C)cc3cccnc23)cc1 |
| 125 to 126 | COC1=C(OC)C(=O)c2cc(Cl)ccc2C1=O |
| 134 to 137 | O=Cc1cc2ccccc2[nH]1 |
| 143 to 144 | Cc1c(C)c2c(c(C)c1NC(=O)CC(C)(C)C)[C@@H](c1ccc(C(C)C)cc1)[C@H](C)O2 (relative stereo) |
| 138 to 140 | COc1cc([N+](=O)[O-])c2nc(C(F)(F)F)cc(O)c2c1 |
| 199 to 201 | CCNC(=S)NC1=Nc2ccc(OC(F)(F)F)cc2SC1 |
| 131 to 134 | O=S(=O)(Nc1ccc2c(OCc3ccc(-c4ccccc4)cc3Cl)cccc2c1)C(F)(F)F |
| 260 | Cc1cc(C2=NNC(=O)SC2C)cc2c1NC(=O)C2(C)C (stereo not drawn) |
| 171 to 173 | O=C(O)c1cccc2c1CCc1cccc(O)c1S2 |
| 68 to 70 | CCOC(=O)c1c(N)cc([N+](=O)[O-])cc1CC |
| 167 to 169 | N#Cc1ccc(NC(=O)C(=O)N2CCC(Cc3ccc(F)cc3)CC2)cc1 |
| 125 to 128 | CC(c1ccc(Cl)cc1)N(O)C(N)=O (stereo not drawn) |
| 70 to 71 | CCCN1C(=O)N2C[C@@H](Cc3ccccc3)N=C2c2[nH]c([C@H]3CC[C@H](CN)CC3)nc21 |
| 101 to 102 | [N-]=[N+]=NC(C(=O)O)C1c2ccccc2CCc2ccccc21 (stereo not drawn) |
| > 300 | COc1nc(NC#N)nc(OC)n1 |
